In patent publication US9283222B2 (priority 2006, dated 2016):
pKi: −log10 of the molar value. Where two headings read alike, the source gives them in different places.

Target: Recombinant Human Poly(ADP-Ribose) Polymerase (PARP), PARP-1 (Homo sapiens (Human), UniProt P09874)
Settings: read-out: PARP-1 (Ki)
[1] = Table 1, text calls the values EC50s

Chain of Recombinant Human Poly(ADP-Ribose) Polymerase (PARP), PARP-1 (P09874 whole entry): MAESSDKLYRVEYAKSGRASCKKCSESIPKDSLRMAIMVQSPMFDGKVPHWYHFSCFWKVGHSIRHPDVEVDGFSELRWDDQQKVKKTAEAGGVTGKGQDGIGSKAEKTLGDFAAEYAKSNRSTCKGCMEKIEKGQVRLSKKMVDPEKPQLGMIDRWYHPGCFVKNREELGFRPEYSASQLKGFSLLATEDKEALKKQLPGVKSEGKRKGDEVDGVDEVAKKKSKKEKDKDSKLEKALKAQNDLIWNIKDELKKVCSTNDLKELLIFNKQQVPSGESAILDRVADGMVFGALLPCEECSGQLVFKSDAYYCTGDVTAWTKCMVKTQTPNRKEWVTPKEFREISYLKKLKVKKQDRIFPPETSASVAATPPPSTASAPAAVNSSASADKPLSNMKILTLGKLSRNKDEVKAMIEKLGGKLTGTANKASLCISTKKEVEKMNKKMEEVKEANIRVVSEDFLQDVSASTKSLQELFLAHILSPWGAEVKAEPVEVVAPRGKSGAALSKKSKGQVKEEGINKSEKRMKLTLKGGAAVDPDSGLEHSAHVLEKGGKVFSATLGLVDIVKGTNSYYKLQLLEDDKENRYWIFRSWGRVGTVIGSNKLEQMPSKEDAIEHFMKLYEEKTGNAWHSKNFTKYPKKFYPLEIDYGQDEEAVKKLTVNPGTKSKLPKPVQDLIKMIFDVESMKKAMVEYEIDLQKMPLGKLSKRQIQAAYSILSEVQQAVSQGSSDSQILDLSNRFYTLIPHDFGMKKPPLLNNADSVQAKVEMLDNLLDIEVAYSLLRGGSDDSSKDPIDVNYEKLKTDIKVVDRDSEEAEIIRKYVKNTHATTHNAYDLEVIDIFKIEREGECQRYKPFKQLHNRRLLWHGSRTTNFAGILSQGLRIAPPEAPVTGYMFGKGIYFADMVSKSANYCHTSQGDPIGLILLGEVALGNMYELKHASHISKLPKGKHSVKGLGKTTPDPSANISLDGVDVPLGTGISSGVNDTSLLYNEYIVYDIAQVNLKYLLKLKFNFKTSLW

O=C(NCCc1ccc(C(F)(F)F)cc1)c1cccc(Cc2n[nH]c(=O)c3c2CCCC3)c1 [Example 395, 3-((4-oxo-3,4,5,6,7,8-hexahydrophthalazin-1-yl)methyl)-N-(2-(4-(trifluoromethyl)phenyl)ethyl)benzamide]
pKi [1]: 7.42

CN(C)CCCNC(=O)c1cccc(Cc2n[nH]c(=O)c3c2CCCC3)c1 [Example 314, N-(3-(dimethylamino)propyl)-3-((4-oxo-3,4,5,6,7,8-hexahydrophthalazin-1-yl)methyl)benzamide]
pKi [1]: 7.49

CC(C)(C)OC(=O)N1CCN(C(=O)c2cc(Cc3n[nH]c(=O)c4c3NCCC4)ccc2F)[C@H](c2ccccc2)C1 [Example 614, tert-butyl (3R)-4-{2-fluoro-5-[(5-oxo-1,2,3,4,5,6-hexahydropyrido[2,3-d]pyridazin-8-yl)methyl]benzoyl}-3-phenylpiperazine-1-carboxylate]
pKi [1]: 7.60

O=c1[nH]nc(Cc2cccs2)c2c1CCCC2 [Example 91, 4-(thien-2-ylmethyl)-5,6,7,8-tetrahydrophthalazin-1(2H)-one]
pKi [1]: 7.15

O=C(Nc1cccc(Cc2n[nH]c(=O)c3c2CCCC3)c1)c1ccccc1CCc1ccccc1 [Example 242, N-(3-((4-oxo-3,4,5,6,7,8-hexahydrophthalazin-1-yl)methyl)phenyl)-2-(2-phenylethyl)benzamide]
pKi [1]: 6.21

NC(=O)C1CCN(C(=O)c2cc(Cc3n[nH]c(=O)c4c3NCCC4)ccc2F)CC1 [Example 534, 1-{2-fluoro-5-[(5-oxo-1,2,3,4,5,6-hexahydropyrido[2,3-d]pyridazin-8-yl)methyl]benzoyl}piperidine-4-carboxamide]
pKi [1]: 8.70

COc1ccc(CCC(=O)Nc2cccc(Cc3n[nH]c(=O)c4c3CCCC4)c2)cc1 [Example 162, 3-(4-methoxyphenyl)-N-(3-((4-oxo-3,4,5,6,7,8-hexahydrophthalazin-1-yl)methyl)phenyl)propanamide]
pKi [1]: 7.29

O=C(Nc1cccc(Cc2n[nH]c(=O)c3c2CCCC3)c1)c1cc(C(F)(F)F)ccc1F [Example 191, 2-fluoro-N-(3-((4-oxo-3,4,5,6,7,8-hexahydrophthalazin-1-yl)methyl)phenyl)-5-(trifluoromethyl)benzamide]
pKi [1]: 7.51

O=C(CCCC(=O)Nc1cccc(Cc2n[nH]c(=O)c3c2CCCC3)c1)Nc1ccccc1 [Example 172, N-(3-((4-oxo-3,4,5,6,7,8-hexahydrophthalazin-1-yl)methyl)phenyl)-N′-phenylpentanediamide]
pKi [1]: 8.52

CS(=O)(=O)Nc1cccc(Cc2n[nH]c(=O)c3c2CCCC3)c1 [Example 114, N-(3-((4-oxo-3,4,5,6,7,8-hexahydrophthalazin-1-yl)methyl)phenyl)methanesulfonamide]
pKi [1]: 7.19

CN1CCCN(C(=O)c2cc(Cc3n[nH]c(=O)c4c3NCCC4)ccc2F)CC1 [Example 509, 8-{4-fluoro-3-[(4-methyl-1,4-diazepan-1-yl)carbonyl]benzyl}-2,3,4,6-tetrahydropyrido[2,3-d]pyridazin-5(1H)-one]
pKi [1]: 8.52

O=C(c1cncnc1)N1CCN(C(=O)c2cc(Cc3n[nH]c(=O)c4c3NCCC4)ccc2F)CC1 [Example 664, 8-(4-fluoro-3-{[4-(pyrimidin-5-ylcarbonyl)piperazin-1-yl]carbonyl}benzyl)-2,3,4,6-tetrahydropyrido[2,3-d]pyridazin-5(1H)-one]
pKi [1]: 8.89

O=C(c1cc(Cc2n[nH]c(=O)c3c2NCCC3)ccc1F)N1CCN(c2ccccc2F)CC1 [Example 549, 8-(4-fluoro-3-{[4-(2-fluorophenyl)piperazin-1-yl]carbonyl}benzyl)-2,3,4,6-tetrahydropyrido[2,3-d]pyridazin-5(1H)-one]
pKi [1]: 9.00

O=C(COc1ccccc1)N1CCN(C(=O)c2cc(Cc3n[nH]c(=O)c4c3CCCC4)ccc2F)CC1 [Example 590, 4-(4-fluoro-3-{[4-(phenoxyacetyl)piperazin-1-yl]carbonyl}benzyl)-5,6,7,8-tetrahydrophthalazin-1(2H)-one]
pKi [1]: 8.72

O=C(c1ccc(Cl)cn1)N1CCN(C(=O)c2cc(Cc3n[nH]c(=O)c4c3NCCC4)ccc2F)CC1 [Example 641]
pKi [1]: 8.89

CC(Cc1n[nH]c(=O)c2c1CCCC2)c1cccc(-c2cccc(C(=O)NCCN(C)C)c2)c1 (stereo not shown) [Example 282, N-(2-(dimethylamino)ethyl)-3′-(1-methyl-2-(4-oxo-3,4,5,6,7,8-hexahydrophthalazin-1-yl)ethyl)-1,1′-biphenyl-3-carboxamide]
pKi [1]: 5.77

CCOc1cc(CCNC(=O)c2cccc(Cc3n[nH]c(=O)c4c3CCCC4)c2)ccc1OC [Example 400, N-(2-(3-ethoxy-4-methoxyphenyl)ethyl)-3-((4-oxo-3,4,5,6,7,8-hexahydrophthalazin-1-yl)methyl)benzamide]
pKi [1]: 7.66

O=C1CCCN1c1cc(Cc2n[nH]c(=O)c3c2CCCC3)cc[n+]1[O-] [Example 133, 4-((1-oxido-2-(2-oxopyrrolidin-1-yl)pyridin-4-yl)methyl)-5,6,7,8-tetrahydrophthalazin-1(2H)-one]
pKi [1]: 6.14

O=C(c1cc(Cc2n[nH]c(=O)c3c2CCCC3)ccc1F)N1CCN(c2ccccn2)CC1 [Example 529, 4-{4-fluoro-3-[(4-pyridin-2-ylpiperazin-1-yl)carbonyl]benzyl}-5,6,7,8-tetrahydrophthalazin-1(2H)-one]
pKi [1]: 8.70

Cc1cncc(N2CCN(C(=O)c3cc(Cc4n[nH]c(=O)c5c4NCCC5)ccc3F)CC2)n1 [Example 573, 8-(4-fluoro-3-{[4-(6-methylpyrazin-2-yl)piperazin-1-yl]carbonyl}benzyl)-2,3,4,6-tetrahydropyrido[2,3-d]pyridazin-5(1H)-one]
pKi [1]: 9.05

O=C1CCCC(=O)N1c1cc(Cc2n[nH]c(=O)c3c2CCCC3)ccc1F [Example 303, 1-(2-fluoro-5-((4-oxo-3,4,5,6,7,8-hexahydrophthalazin-1-yl)methyl)phenyl)piperidine-2,6-dione]
pKi [1]: 9.10

O=C1CCN1c1cc(Cc2n[nH]c(=O)c3cccnc23)ccc1F [Example 449, 8-(4-fluoro-3-(2-oxoazetidin-1-yl)benzyl)pyrido(2,3-d)pyridazin-5(6H)-one]
pKi [1]: 6.99

O=C(c1cc(Cc2n[nH]c(=O)c3c2CCCC3)ccc1F)N1CCN(c2ncccn2)CC1 [Example 490, 4-(4-fluoro-3-((4-pyrimidin-2-ylpiperazin-1-yl)carbonyl)benzyl)-5,6,7,8-tetrahydrophthalazin-1(2H)-one]
pKi [1]: 9.15

CCOc1ccccc1C(=O)Nc1cccc(Cc2n[nH]c(=O)c3c2CCCC3)c1 [Example 187, 2-ethoxy-N-(3-((4-oxo-3,4,5,6,7,8-hexahydrophthalazin-1-yl)methyl)phenyl)benzamide]
pKi [1]: 5.90

O=C1NC(Cc2ccccc2)C(=O)N1c1cc(Cc2n[nH]c(=O)c3c2NCCC3)ccc1F (stereo not shown) [Example 605, 5-benzyl-3-{2-fluoro-5-[(5-oxo-1,2,3,4,5,6-hexahydropyrido[2,3-d]pyridazin-8-yl)methyl]phenyl}imidazolidine-2,4-dione]
pKi [1]: 7.49

Cc1ccc(NC(=O)c2cccc(Cc3n[nH]c(=O)c4c3CCCC4)c2)c(F)c1 [Example 338, N-(2-fluoro-4-methylphenyl)-3-((4-oxo-3,4,5,6,7,8-hexahydrophthalazin-1-yl)methyl)benzamide]
pKi [1]: 6.87

O=C(NCCCN1CCCCC1)c1cccc(Cc2n[nH]c(=O)c3c2CCCC3)c1 [Example 316, 3-((4-oxo-3,4,5,6,7,8-hexahydrophthalazin-1-yl)methyl)-N-(3-piperidin-1-ylpropyl)benzamide]
pKi [1]: 7.47

O=C(Nc1cccc(Cc2n[nH]c(=O)c3c2CCCC3)c1)C(c1ccccc1)c1ccccc1 [Example 174, N-(3-((4-oxo-3,4,5,6,7,8-hexahydrophthalazin-1-yl)methyl)phenyl)-2,2-diphenylacetamide]
pKi [1]: 6.18

CC(=O)Nc1cccc(-c2cc(CCc3n[nH]c(=O)c4c3CCCC4)ccc2F)c1 [Example 274, N-(2′-fluoro-5′-(2-(4-oxo-3,4,5,6,7,8-hexahydrophthalazin-1-yl)ethyl)-1,1′-biphenyl-3-yl)acetamide]
pKi [1]: 6.65

CCC(=O)N1CCN(C(=O)c2cc(Cc3n[nH]c(=O)c4c3CCCC4)ccc2F)CC1 [Example 585, 4-{4-fluoro-3-[(4-propionylpiperazin-1-yl)carbonyl]benzyl}-5,6,7,8-tetrahydrophthalazin-1(2H)-one]
pKi [1]: 8.89

COC(=O)c1cc(Cc2n[nH]c(=O)c3c2NCCC3)ccc1F [Example 465, methyl 2-fluoro-5-((5-oxo-1,2,3,4,5,6-hexahydropyrido(2,3-d)pyridazin-8-yl)methyl)benzoate]
pKi [1]: 8.46

C[C@H](NC(=O)Nc1cc(Cc2n[nH]c(=O)c3c2CCCC3)ccc1F)C(=O)O [Example 627, N-[({2-fluoro-5-[(4-oxo-3,4,5,6,7,8-hexahydrophthalazin-1-yl)methyl]phenyl}amino)carbonyl]alanine]
pKi [1]: 7.07

O=C(Nc1cccc(Cc2n[nH]c(=O)c3c2CCCC3)c1)c1ccco1 [Example 193, N-(3-((4-oxo-3,4,5,6,7,8-hexahydrophthalazin-1-yl)methyl)phenyl)-2-furamide]
pKi [1]: 7.00

O=C(COc1ccccc1)N1CCN(C(=O)c2cc(Cc3n[nH]c(=O)c4c3NCCC4)ccc2F)CC1 [Example 591, 8-(4-fluoro-3-{[4-(phenoxyacetyl)piperazin-1-yl]carbonyl}benzyl)-2,3,4,6-tetrahydropyrido[2,3-d]pyridazin-5(1H)-one]
pKi [1]: 9.30

CN(CCc1ccccn1)C(=O)c1cccc(Cc2n[nH]c(=O)c3c2CCCC3)c1 [Example 426, N-methyl-3-((4-oxo-3,4,5,6,7,8-hexahydrophthalazin-1-yl)methyl)-N-(2-pyridin-2-ylethyl)benzamide]
pKi [1]: 7.85

CCN(CC)C(=O)C1CCCN(C(=O)c2cccc(Cc3n[nH]c(=O)c4c3CCCC4)c2)C1 (stereo not shown)
pKi (Table 3, H analogs versus para-F analogs): 7.57

Cc1nc2cc(C(=O)N3CCCN(C(=O)c4cc(Cc5n[nH]c(=O)c6c5NCCC6)ccc4F)CC3)ccc2[nH]1 [Example 689, 8-[4-fluoro-3-({4-[(2-methyl-1H-benzimidazol-5-yl)carbonyl]-1,4-diazepan-1-yl}carbonyl)benzyl]-2,3,4,6-tetrahydropyrido[2,3-d]pyridazin-5(1H)-one]
pKi [1]: 8.57
